This is an account of results in patent US20110071150A1 (priority 2009, published 2011).

As usually defined, the IC50 is the concentration that gives 50% inhibition.

The test deals with Jurkat IL-2 Production. As to the kind of experiment: Jurkat IL-2 Production Assay. Format: cell-based. Conditions: Homo sapiens, Jurkat cell (ATCC), 18-20 h incubation, PHA 5 μg/mL with 1% FBS, or PMA/Ionomycin with 30% FBS (table does not say which). The method, then: Jurkat IL-2 Production Assay
Cell: Jurkat cell (ATCC) was grown in RPMI 1640 with 10% FBS and 1% penicillin/streptomycin. The cell density was kept at 1.2-1.8×10^6/mL in culture flask before seeding into culture plate, and the cell density in the plate was 0.5×10^6/[…]/well.
Culture media: RPMI 1640 with 1% FBS or 30% FBS for high serum assay.
Test compound: serial dilution was done in 100% DMSO, and intermediate dilution was done with RPMI 1640 medium with 1% FBS. The DMSO final concentration in culture well was 0.25%.
Stimulant: PHA (Sigma#L9017-10MG) was used for the assay with 1% FBS in culture medium, and added after 10 minutes exposure of cell to compound/DMSO. The PHA final concentration in culture well was 5 μg/mL. PMA (Sigma# P-8139 5MG)/Ionomycin (Sigma# 10634-5MG) was used for the assay with 30% FBS in culture medium, and added at same time point as the 1% FBS culture assay. The final concentration of PMA was 50 ng/mL, and Ionomycin final concentration was 500 ng/mL.
Incubation: at 37° C. with 5% CO2 and 95% humidity for 18 h˜20 h.
IC50: IC50 was calculated with the data analysis software XLfit4, General Pharmacology model 251.

In turn, `Cc1sc(-c2cccnc2)nc1-c1ccc2[nH]c(-c3cncnc3C(C)C)cc2c1` [Example 68, 2-(4-Isopropyl-pyrimidin-5-yl)-5-(5-methyl-2-pyridin-3-yl-thiazol-4-yl)-1H-indole] had an IC50 of 152 nM.
Under `Cc1sc(C(C)C)nc1-c1ccc2[nH]c(-c3ccccc3Cl)cc2c1` [Example 69, 2-(2-Chloro-phenyl)-5-(2-isopropyl-5-methyl-thiazol-4-yl)-1H-indole] stands 949 nM.
Under `Cc1sc(C(C)C)nc1-c1ccc2[nH]c(-c3c(F)cccc3F)cc2c1` [Example 70, 2-(2,6-Difluoro-phenyl)-5-(2-isopropyl-5-methyl-thiazol-4-yl)-1H-indole] stands 356 nM; under `Cc1sc(C2CC2)nc1-c1ccc2[nH]c(-c3ccccc3Cl)cc2c1` [Example 71], 584 nM; under `Cc1sc(C2CC2)nc1-c1ccc2[nH]c(-c3c(F)cccc3F)cc2c1` [Example 72, 5-(2-Cyclopropyl-5-methyl-thiazol-4-yl)-2-(2,6-difluoro-phenyl)-1H-indole], 397 nM.
Under `Cc1sc(-c2ncco2)nc1-c1ccc2[nH]c(-c3c(F)cccc3F)cc2c1` [Example 73, 2-(2,6-Difluoro-phenyl)-5-(5-methyl-2-oxazol-2-yl-thiazol-4-yl)-1H-indole] stands 60 nM; under `Cc1sc(C2CCOCC2)nc1-c1ccc2[nH]c(-c3c(F)cccc3F)cc2c1` [Example 74, 2-(2,6-Difluoro-phenyl)-5-[5-methyl-2-(tetrahydro-pyran-4-yl)-thiazol-4-yl]-1H-indole], 668 nM; under `Cn1nc(-c2cccnc2)cc1-c1ccc2[nH]c(-c3ccccc3F)cc2c1` [Example 75, 2-(2-Fluoro-phenyl)-5-(2-methyl-5-pyridin-3-yl-2H-pyrazol-3-yl)-1H-indole], 310 nM.
The compound `CCn1nc(-c2cccnc2)cc1-c1ccc2[nH]c(-c3ccccc3F)cc2c1` [Example 76, 2-(2-Fluoro-phenyl)-5-(2-ethyl-5-pyridin-3-yl-2H-pyrazol-3-yl)-1H-indole] came in with a half-maximal inhibitory concentration (IC50) of 108 nM.
Under `Cn1nc(-c2cccnc2)cc1-c1ccc2[nH]c(-c3ccccc3Cl)cc2c1` [Example 77, 2-(2-Chloro-phenyl)-5-(2-methyl-5-pyridin-3-yl-2H-pyrazol-3-yl)-1H-indole] stands 169 nM; under `CCn1nc(-c2cccnc2)cc1-c1ccc2[nH]c(-c3ccccc3Cl)cc2c1` [Example 78, 2-(2-Chloro-phenyl)-5-(2-ethyl-5-pyridin-3-yl-2H-pyrazol-3-yl)-1H-indole], 95 nM; under `Cc1ccccc1-c1cc2cc(-c3cc(-c4cccnc4)nn3C)ccc2[nH]1` [Example 79, 5-(2-Methyl-5-pyridin-3-yl-2H-pyrazol-3-yl)-2-o-tolyl-1H-indole], 139 nM.
`CCn1nc(-c2cccnc2)cc1-c1ccc2[nH]c(-c3ccccc3C)cc2c1` [Example 80, 5-(2-Ethyl-5-pyridin-3-yl-2H-pyrazol-3-yl)-2-o-tolyl-1H-indole] came in with an IC50 of 91 nM.
The compound `Cn1nc(-c2ccccn2)cc1-c1ccc2[nH]c(-c3ccccc3Cl)cc2c1` [Example 81, 2-(2-Chloro-phenyl)-5-(2-methyl-5-pyridin-2-yl-2H-pyrazol-3-yl)-1H-indole] displayed a 50% inhibitory concentration (IC50) of 501 nM.
For the compound `Cn1nc(-c2ccccn2)cc1-c1ccc2[nH]c(-c3cc(F)ccc3Cl)cc2c1` [Example 82, 2-(2-Chloro-5-fluoro-phenyl)-5-(2-methyl-5-pyridin-2-yl-2H-pyrazol-3-yl)-1H-indole], the midpoint of inhibition, the IC50, lay at 367 nM.
Then `Cn1nc(-c2ccccn2)cc1-c1ccc2[nH]c(-c3ccc(F)cc3Cl)cc2c1` [Example 83, 2-(2-Chloro-4-fluoro-phenyl)-5-(2-methyl-5-pyridin-2-yl-2H-pyrazol-3-yl)-1H-indole], with 358 nM.
Then `Cn1nc(-c2cccnc2)cc1-c1ccc2[nH]c(-c3cccc(F)c3F)cc2c1` [Example 84, 2-(2,3-Difluoro-phenyl)-5-(2-methyl-5-pyridin-3-yl-2H-pyrazol-3-yl)-1H-indole], with 399 nM.
Then `Cn1nc(-c2cccnc2)cc1-c1ccc2[nH]c(-c3cccc(Cl)c3Cl)cc2c1` [Example 85, 2-(2,3-Dichloro-phenyl)-5-(2-methyl-5-pyridin-3-yl-2H-pyrazol-3-yl)-1H-indole], with 149 nM; and `Cn1nc(-c2cccnc2)cc1-c1ccc2[nH]c(-c3ccc(F)cc3Cl)cc2c1` [Example 86, 2-(2-Chloro-4-fluoro-phenyl)-5-(2-methyl-5-pyridin-3-yl-2H-pyrazol-3-yl)-1H-indole], with 118 nM; and `Cn1nc(-c2cccnc2)cc1-c1ccc2[nH]c(-c3cc(Cl)ccc3Cl)cc2c1` [Example 87, 2-(2,5-Dichloro-phenyl)-5-(2-methyl-5-pyridin-3-yl-2H-pyrazol-3-yl)-1H-indole], with 135 nM.
Turning to `COC(=O)c1ccc(-c2ccc3[nH]c(-c4c(F)cccc4F)cc3c2)c(Cl)c1` [Example 88, 4-[2-(2,6-Difluoro-phenyl)-1H-indol-5-yl]-3-chloro-benzoic acid methyl ester], it took 908 nM to reach half-maximal inhibition (IC50).
Then `Cc1cc(C(N)=O)ccc1-c1ccc2[nH]c(-c3c(F)cccc3F)cc2c1` [Example 89, 4-[2-(2,6-Difluoro-phenyl)-1H-indol-5-yl]-3-methyl-benzamide], with 451 nM; and `COc1ccc(-c2ccc3[nH]c(-c4c(F)cccc4F)cc3c2)c(OC)c1` [Example 90, 2-(2,6-Difluoro-phenyl)-5-(2,4-dimethoxy-phenyl)-1H-indole], with 177 nM; and `Cc1cc(F)ccc1-c1ccc2[nH]c(-c3c(F)cccc3F)cc2c1` [Example 91, 2-(2,6-Difluoro-phenyl)-5-(4-fluoro-2-methyl-phenyl)-1H-indole], with 456 nM.
`Fc1cccc(F)c1-c1cc2cc(-c3ccc(C(F)(F)F)cc3C(F)(F)F)ccc2[nH]1` [Example 92, 5-(2,4-Bis-trifluoromethyl-phenyl)-2-(2,6-difluoro-phenyl)-1H-indole] displayed an IC50 of 188 nM.
Then `COc1ncc(-c2ccc3[nH]c(-c4c(F)cccc4F)cc3c2)c(OC)n1` [Example 93, 2-(2,6-Difluoro-phenyl)-5-(2,4-dimethoxy-pyrimidin-5-yl)-1H-indole], with 921 nM; and `Fc1cccc(F)c1-c1cc2cc(-c3ccc(C(F)(F)F)cc3Cl)ccc2[nH]1` [Example 94, 5-(2-Chloro-4-trifluoromethyl-phenyl)-2-(2,6-difluoro-phenyl)-1H-indole], with 175 nM.
Under `COc1ccc(-c2ccc3[nH]c(-c4c(F)cccc4F)cc3c2)c(OC)n1` [Example 95, 2-(2,6-Difluoro-phenyl)-5-(2,6-dimethoxy-pyridin-3-yl)-1H-indole] stands 994 nM; under `CS(=O)(=O)c1ccc(-c2ccc3[nH]c(-c4c(F)cccc4F)cc3c2)c(C(F)(F)F)c1` [Example 96, 2-(2,6-Difluoro-phenyl)-5-(4-methanesulfonyl-2-trifluoromethyl-phenyl)-1H-indole], 177 nM.
`CN(C)S(=O)(=O)c1ccc(-c2ccc3[nH]c(-c4c(F)cccc4F)cc3c2)c(C(F)(F)F)c1` [Example 97, 4-[2-(2,6-Difluoro-phenyl)-1H-indol-5-yl]-N,N-dimethyl-3-trifluoromethyl-benzenesulfonamide] returned a 50% inhibitory concentration (IC50) of 72 nM.
Then `COc1ccc(-c2ccc3[nH]c(-c4c(F)cccc4F)cc3c2)c(Cl)c1` [Example 98, 5-(2-Chloro-4-methoxy-phenyl)-2-(2,6-difluoro-phenyl)-1H-indole], with 279 nM; and `COc1ccc(-c2ccc3[nH]c(-c4c(F)cccc4F)cc3c2)c(C(F)(F)F)c1` [Example 99, 2-(2,6-Difluoro-phenyl)-5-(4-methoxy-2-trifluoromethyl-phenyl)-1H-indole], with 344 nM.
Then `Cc1cc(OC(F)(F)F)ccc1-c1ccc2[nH]c(-c3c(F)cccc3F)cc2c1` [Example 100, 2-(2,6-Difluoro-phenyl)-5-(2-methyl-4-trifluoromethoxy-phenyl)-1H-indole], with 307 nM.
Then `COc1ccc(-c2ccc3[nH]c(-c4c(F)cccc4F)cc3c2)c(C)n1` [Example 101, 2-(2,6-Difluoro-phenyl)-5-(6-methoxy-2-methyl-pyridin-3-yl)-1H-indole], with 593 nM.
The compound `Cc1cc(-c2ncco2)ccc1-c1ccc2[nH]c(-c3c(F)cccc3F)cc2c1` [Example 102, 2-(2,6-Difluoro-phenyl)-5-(2-methyl-4-oxazol-2-yl-phenyl)-1H-indole] yielded an IC50 of 74 nM.
Under `COc1cc(-c2ncco2)ccc1-c1ccc2[nH]c(-c3c(F)cccc3F)cc2c1` [Example 103, 2-(2,6-Difluoro-phenyl)-5-(2-methoxy-4-oxazol-2-yl-phenyl)-1H-indole] stands 176 nM; under `Cc1cc(N2CCNCC2)ncc1-c1ccc2[nH]c(-c3c(F)cccc3F)cc2c1` [Example 104, 2-(2,6-Difluoro-phenyl)-5-(4-methyl-6-piperazin-1-yl-pyridin-3-yl)-1H-indole], 178 nM.
Then `Cc1sc(-c2ccnnc2)nc1-c1ccc2[nH]c(-c3c(F)cccc3F)cc2c1` [Example 105, 2-(2,6-Difluoro-phenyl)-5-(5-methyl-2-pyridazin-4-yl-thiazol-4-yl)-1H-indole], with 664 nM.
